These compounds were tested against CBL-B protein (Homo sapiens, UniProt Q13191) (assay: CBL-B binding experiment (Streptavidin-Tb cryptate / Ligand L1 displacement)). Conditions: 8 nM CBL-B protein, 25° C., 60 minutes; Ki=Relative IC50/2.
Experimental: The reaction system mainly includes 1× buffer, 20 mM HEPES pH 7.5, 150 mM NaCl, 0.01% Triton X-100, 0.5 mM TCEP, and 0.1% ug/ml BSA. The compound is continuously diluted with DMSO for 10 concentration points, and 150 nL is transferred to the experimental plate. The experimental reaction begins after adding 8 nM of CBL-B protein and the reaction is carried out at 25° C. for 60 minutes. […] After an additional 60 minutes of incubation at room temperature, the experimental plate is read using an EnVision plate. The luminescence signal values were converted to percentage inhibition rates. Inhibition %=(Sample value−Maximum value)/(Minimum value−Maximum value)×100. The minimum value refers to the measured value in the wells without CBL-B protein but with DMSO and Ligand, while the maximum value refers to the measured value in the wells with DMSO, CBL-B protein, and Ligand. The IC50 values are calculated by XLFit (version 5.3.1.3) in Excel. Equation: Y=Bottom+(Top−Bottom)/(1+(IC50/X)^HillSlope); Ki=Relative IC50/2.

Sequence of CBL-B protein (Q13191 whole entry): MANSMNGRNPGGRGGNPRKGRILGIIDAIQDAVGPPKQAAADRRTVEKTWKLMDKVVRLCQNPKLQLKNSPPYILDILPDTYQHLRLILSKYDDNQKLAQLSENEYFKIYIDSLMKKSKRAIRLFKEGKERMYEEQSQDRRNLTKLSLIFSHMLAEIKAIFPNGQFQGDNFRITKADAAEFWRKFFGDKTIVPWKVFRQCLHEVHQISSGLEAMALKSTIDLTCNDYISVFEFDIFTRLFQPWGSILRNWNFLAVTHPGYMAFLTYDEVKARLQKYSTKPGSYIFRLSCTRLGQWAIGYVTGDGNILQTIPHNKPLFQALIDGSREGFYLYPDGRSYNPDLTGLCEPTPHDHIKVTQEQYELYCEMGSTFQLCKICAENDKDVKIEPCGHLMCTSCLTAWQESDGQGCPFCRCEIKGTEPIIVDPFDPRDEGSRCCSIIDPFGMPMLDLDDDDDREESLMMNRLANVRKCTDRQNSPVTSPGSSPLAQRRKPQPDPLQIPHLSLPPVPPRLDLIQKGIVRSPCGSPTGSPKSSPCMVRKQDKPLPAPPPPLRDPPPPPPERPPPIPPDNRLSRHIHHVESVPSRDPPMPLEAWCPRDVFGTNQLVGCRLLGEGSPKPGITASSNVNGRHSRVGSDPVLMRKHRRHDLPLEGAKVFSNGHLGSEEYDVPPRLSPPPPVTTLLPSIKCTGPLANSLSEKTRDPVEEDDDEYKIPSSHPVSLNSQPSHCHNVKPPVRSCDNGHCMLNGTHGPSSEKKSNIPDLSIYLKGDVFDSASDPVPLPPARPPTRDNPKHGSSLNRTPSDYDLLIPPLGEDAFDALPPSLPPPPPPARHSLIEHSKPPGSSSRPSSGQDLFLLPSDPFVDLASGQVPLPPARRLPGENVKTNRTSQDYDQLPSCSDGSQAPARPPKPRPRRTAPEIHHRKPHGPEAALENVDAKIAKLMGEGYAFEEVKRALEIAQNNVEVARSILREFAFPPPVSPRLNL

`C[C@@H](NCc1cc2c(C(F)(F)F)cn(-c3cccc(C4(c5nncn5C)CCC4)c3)c(=O)c2[nH]1)C(C)(C)C` (racemic) [Compound T044, 6-[3-[1-(4-methyl-1,2,4-triazol-3-yl)cyclobutyl]phenyl]-2-[[[rac-(1R)-1,2,2-trimethylpropyl]amino]methyl]-4-(trifluoromethyl)-1H-pyrrolo[2,3-c]pyridin-7-one] and `Cn1cnnc1C1(c2cccc(-n3cc(C(F)(F)F)c4cc(CNCC(F)(F)CO)[nH]c4c3=O)c2)CCC1` [Compound T050, 2-[[(2,2-difluoro-3-hydroxy-propyl)amino]methyl]-6-[3-[1-(4-methyl-1,2,4-triazol-3-yl)cyclobutyl]phenyl]-4-(trifluoromethyl)-1H-pyrrolo[2,3-c]pyridin-7-one] cannot be ordered by Ki: < 50 nM for the first, < 50 nM for the second.

`Cn1cnnc1C1(c2cccc(-n3cc(C(F)(F)F)c4cc(CN5CCCC(C(F)F)C5)[nH]c4c3=O)c2)CCC1` (racemic) [Compound T113, 6-[3-[1-(4-methyl-1,2,4-triazol-3-yl)cyclobutyl]phenyl]-2-[[rac-(3R)-3-(difluoromethyl)-1-piperidyl]methyl]-4-(trifluoromethyl)-1H-pyrrolo[2,3-c]pyridin-7-one] and `Cn1cnnc1C1(c2cccc(-n3cc(C(F)(F)F)c4cc(CN5CCC[C@@H](F)C5)[nH]c4c3=O)c2)CCC1` [Compound T046, 2-[[(3R)-3-fluoro-1-piperidyl]methyl]-6-[3-[1-(4-methyl-1,2,4-triazol-3-yl)cyclobutyl]phenyl]-4-(trifluoromethyl)-1H-pyrrolo[2,3-c]pyridin-7-one] cannot be ordered by Ki: < 50 nM for the first, < 50 nM for the second.

`C[C@H]1CCCN(Cc2cc3ccn(-c4cccc(C5(Cc6nncn6C)COC5)c4)c(=O)c3[nH]2)C1` [Compound T001, (S)-6-(3-(3-((4-methyl-4H-1,2,4-triazol-3-yl)methyl)oxetan-3-yl)phenyl)-2-((3-methylpiperidin-1-yl)methyl)-1,6-dihydro-7H-pyrrolo[2,3-c]pyridin-7-one] and `Cc1cn(-c2cccc(C3(Cc4nncn4C)COC3)c2)c(=O)c2[nH]c(CN3CCC[C@H](C)C3)cc12` [Compound T003, 4-methyl-2-[[(3S)-3-methyl-1-piperidyl]methyl]-6-[3-[3-[(4-methyl-1,2,4-triazol-3-yl)methyl]oxetan-3-yl]phenyl]-1H-pyrrolo[2,3-c]pyridin-7-one] cannot be ordered by Ki: < 50 nM for the first, < 50 nM for the second.

First: C=Cc1cn(-c2cccc([C@]3(c4nncn4C)C[C@@H](C)C3)c2)c(=O)c2[nH]c(CN3CCC[C@H](C)C3)cc12 [Compound T004, 6-(3-((1s,3R)-3-methyl-1-(4-methyl-4H-1,2,4-triazol-3-yl)cyclobutyl)phenyl)-2-(((S)-3-methylpiperidin-1-yl)methyl)-4-vinyl-1,6-dihydro-7H-pyrrolo[2,3-c]pyridin-7-one]
Second: C[C@H]1CCCN(Cc2cc3c(C4CC4)cn(-c4cccc([C@]5(Cc6nncn6C)C[C@@H](C)C5)c4)c(=O)c3[nH]2)C1 [Compound T036, 4-cyclopropyl-6-(3-((1r,3S)-3-methyl-1-((4-methyl-4H-1,2,4-triazol-3-yl)methyl)cyclobutyl)phenyl)-2-(((S)-3-methylpiperidin-1-yl)methyl)-1,6-dihydro-7H-pyrrolo[2,3-c]pyridin-7-one]
The Ki of the first is lower: < 50 nM for the first, 50 to 100 nM for the second. The first binds more tightly here.

`Cn1cnnc1CC1(c2cccc(-n3cc(C4CC4)c4cc(CN5CCCCC5)[nH]c4c3=O)c2)COC1` [Compound T006, 4-cyclopropyl-6-[3-[3-[(4-methyl-1,2,4-triazol-3-yl)methyl]oxetan-3-yl]phenyl]-2-(1-piperidylmethyl)-1H-pyrrolo[2,3-c]pyridin-7-one] and `C[C@H]1CCCN(Cc2cc3c(C(F)(F)F)cn(-c4cccc(C5(Cc6nncn6C)COC5)c4)c(=O)c3[nH]2)C1` [Compound T061, 2-[[(3S)-3-methyl-1-piperidyl]methyl]-6-[3-[3-[(4-methyl-1,2,4-triazol-3-yl)methyl]oxetan-3-yl]phenyl]-4-(trifluoromethyl)-1H-pyrrolo[2,3-c]pyridin-7-one] cannot be ordered by Ki: < 50 nM for the first, < 50 nM for the second.

`C[C@H]1CCCN(Cc2cc3c(C4CC4)cn(-c4cccc([C@H](c5nncn5C)C5CCC5)c4)c(=O)c3[nH]2)C1` [Compound T012, 6-(3-((R)-cyclobutyl(4-methyl-4H-1,2,4-triazol-3-yl)methyl)phenyl)-4-cyclopropyl-2-(((S)-3-methylpiperidin-1-yl)methyl)-1,6-dihydro-7H-pyrrolo[2,3-c]pyridin-7-one] and `C[C@H]1CCCN(Cc2cc3c(C(F)(F)F)cn(-c4cccc([C@@H](c5nncn5C)C5CCC5)c4)c(=O)c3[nH]2)C1` [Compound T059, 6-(3-((S)-cyclobutyl (4-methyl-4H-1,2,4-triazol-3-yl)methyl)phenyl)-2-(((S)-3-methylpiperidin-1-yl)methyl)-4-(trifluoromethyl)-1,6-dihydro-7H-pyrrolo[2,3-c]pyridin-7-one] cannot be ordered by Ki: < 50 nM for the first, < 50 nM for the second.

`Cn1cnnc1C1(c2cccc(-n3cc(C(F)(F)F)c4cc(CN5CC[C@@H](O)C5)[nH]c4c3=O)c2)CCC1` [Compound T015, 2-[[(3R)-3-hydroxypyrrolidin-1-yl]methyl]-6-[3-[1-(4-methyl-1,2,4-triazol-3-yl)cyclobutyl]phenyl]-4-(trifluoromethyl)-1H-pyrrolo[2,3-c]pyridin-7-one] and `Cn1cnnc1C1(c2cccc(-n3cc(C(F)(F)F)c4cc(CN5CC[C@H](O)C5)[nH]c4c3=O)c2)CCC1` [Compound T016, 2-[[(3S)-3-hydroxypyrrolidin-1-yl]methyl]-6-[3-[1-(4-methyl-1,2,4-triazol-3-yl)cyclobutyl]phenyl]-4-(trifluoromethyl)-1H-pyrrolo[2,3-c]pyridin-7-one] cannot be ordered by Ki: < 50 nM for the first, < 50 nM for the second.

`CC(C)c1cn(-c2cccc(C3(Cc4nncn4C)COC3)c2)c(=O)c2[nH]c(CN3CCC[C@H](C)C3)cc12` [Compound T022, 4-isopropyl-2-[[(3S)-3-methyl-1-piperidyl]methyl]-6-[3-[3-[(4-methyl-1,2,4-triazol-3-yl)methyl]oxetan-3-yl]phenyl]-1H-pyrrolo[2,3-c]pyridin-7-one] and `Cn1cnnc1C1(c2cccc(-n3cc(C(F)(F)F)c4cc(CN5CCC[C@@H](O)C5)[nH]c4c3=O)c2)CCC1` [Compound T039, 2-[[(3R)-3-hydroxy-1-piperidyl]methyl]-6-[3-[1-(4-methyl-1,2,4-triazol-3-yl)cyclobutyl]phenyl]-4-(trifluoromethyl)-1H-pyrrolo[2,3-c]pyridin-7-one] cannot be ordered by Ki: < 50 nM for the first, < 50 nM for the second.

`Cn1cnnc1C1(c2cccc(-n3cc(C(F)(F)F)c4cc(CN5C[C@@H]6C[C@H]5CO6)[nH]c4c3=O)c2)CCC1` [Compound T031, 6-[3-[1-(4-methyl-1,2,4-triazol-3-yl)cyclobutyl]phenyl]-2-[[(1 S,4S)-2-oxa-5-azabicyclo [2.2.1]heptan-5-yl]methyl]-4-(trifluoromethyl)-1H-pyrrolo[2,3-c]pyridin-7-one] and `Cn1cnnc1C1(c2cccc(-n3cc(C(F)(F)F)c4cc(CN5C[C@H]6C[C@@H]5CO6)[nH]c4c3=O)c2)CCC1` [Compound T032, 6-[3-[1-(4-methyl-1,2,4-triazol-3-yl)cyclobutyl]phenyl]-2-[[(1R,4R)-2-oxa-5-azabicyclo[2.2.1]heptan-5-yl]methyl]-4-(trifluoromethyl)-1H-pyrrolo[2,3-c]pyridin-7-one] cannot be ordered by Ki: < 50 nM for the first, < 50 nM for the second.

`Cn1cnnc1C1(c2cccc(-n3cc(C(F)(F)F)c4cc(CN5CCC[C@H](F)C5)[nH]c4c3=O)c2)CCC1` [Compound T048, 2-[[(3S)-3-fluoro-1-piperidyl]methyl]-6-[3-[1-(4-methyl-1,2,4-triazol-3-yl)cyclobutyl]phenyl]-4-(trifluoromethyl)-1H-pyrrolo[2,3-c]pyridin-7-one] and `Cn1cnnc1C1(c2cccc(-n3cc(C(F)(F)F)c4cc(CN5C[C@@H](F)[C@@H](F)C5)[nH]c4c3=O)c2)CCC1` [Compound T049, 2-[[(3R,4S)-3,4-difluoropyrrolidin-1-yl]methyl]-6-[3-[1-(4-methyl-1,2,4-triazol-3-yl)cyclobutyl]phenyl]-4-(trifluoromethyl)-1H-pyrrolo[2,3-c]pyridin-7-one] cannot be ordered by Ki: < 50 nM for the first, < 50 nM for the second.

`Cn1cnnc1C1(c2cccc(-n3cc(C(F)(F)F)c4cc(CN5CCC6(CC5)CC6)[nH]c4c3=O)c2)CCC1` [Compound T051, 2-(6-azaspiro[2.5]octan-6-ylmethyl)-6-[3-[1-(4-methyl-1,2,4-triazol-3-yl)cyclobutyl]phenyl]-4-(trifluoromethyl)-1H-pyrrolo[2,3-c]pyridin-7-one] and `Cn1cnnc1C1(c2cccc(-n3cc(C(F)(F)F)c4cc(CN5CCC[C@](C)(O)C5)[nH]c4c3=O)c2)CCC1` [Compound T064, (S)-2-((3-hydroxy-3-methylpiperidin-1-yl)methyl)-6-(3-(1-(4-methyl-4H-1,2,4-triazol-3-yl)cyclobutyl)phenyl)-4-(trifluoromethyl)-1,6-dihydro-7H-pyrrolo[2,3-c]pyridin-7-one] cannot be ordered by Ki: < 50 nM for the first, < 50 nM for the second.

`Cn1cnnc1C1(c2cccc(-n3cc(C(F)(F)F)c4cc(CN5C6CCCC5CC6)[nH]c4c3=O)c2)CCC1` [Compound T052, 2-(8-azabicyclo[3.2.1]octan-8-ylmethyl)-6-[3-[1-(4-methyl-1,2,4-triazol-3-yl)cyclobutyl]phenyl]-4-(trifluoromethyl)-1H-pyrrolo[2,3-c]pyridin-7-one] and `CN(Cc1cc2c(C(F)(F)F)cn(-c3cccc(C4(c5nncn5C)CCC4)c3)c(=O)c2[nH]1)CC(F)(F)F` [Compound T057, 2-((methyl(2,2,2-trifluoroethyl)amino)methyl)-6-(3-(1-(4-methyl-4H-1,2,4-triazol-3-yl)cyclobutyl)phenyl)-4-(trifluoromethyl)-1,6-dihydro-7H-pyrrolo[2,3-c]pyridin-7-one] cannot be ordered by Ki: < 50 nM for the first, < 50 nM for the second.
